The species named for data set [1] is Mus musculus. Briefly: Compound was tested against L1210 infected BDF1 mice expressed as weight change at 72 hour. The data set is classed as functional.
In data set [2] the test system is Mus musculus. Briefly: Compound was tested against L1210 infected BDF1 mice at 480 mg/kg expressed as percent increase in life span. The data set is classed as functional.
For data set [3], the species on record is Mus musculus. Briefly: Compound was tested against L1210 infected BDF1 mice expressed as weight change at 24 hour. The data set is classed as functional.
Data set [4] in a line: In vitro antiviral activity against number of RNA virus was reported; Inactive. The data set is classed as functional.
The nature of data set [5]: Lethal dose in L1210-bearing female BDF1 mice. The data set is classed as toxicity, organism-based. As to conditions: BDF1, mouse, in vivo.
A short description of data set [6]: In vitro antiviral activity against number of DNA virus was reported; Inactive. The data set is classed as functional.

The structures appear in SMILES notation. Calls of active or inactive are those of the source. The rule behind the calls is not given here.

Consider `NC(=S)c1nn(C2O[C@H](CO)[C@@H](O)[C@H]2O)cp1` (stereo partly specified), for which the values for the Weight change in the data set listed under Mus musculus [1] and in the data set listed under Mus musculus [3] were -0.67 g and -1.67 g, respectively. This molecule also registered an ILS at 480 mg/kg with Mus musculus [2] of 25%.
For the molecule `NC(=O)c1nn(C2O[C@H](CO)[C@@H](O)[C@H]2O)cp1` (stereo partly specified), the outcome in data set [4] and in data set [6] was inactive. In addition, in data set [5], the LD50 was determined as 480 mg/kg.

As a reminder, the ILS is how much longer treated animals lived than controls. A high value points to much gain in survival. The term LD50 denotes the dose at which mortality reaches 50%.

The values above are taken from ChEMBL document CHEMBL1125044, “1,2,4-Diazaphosphole nucleosides. Synthesis, structure, and antitumor activity of nucleosides with a lambda 3 phosphorus atom” (J Med Chem, 1990).
